Drawing on BindingDB's records for doi:10.1016/j.bmcl.2005.11.011 (University of Pennsylvania, 2006), this text covers IC50 for eight compounds.

The structures appear in SMILES notation. A value given as a limit tells only on which side of the number the result lay.

The target of the test is T1, Dimer of Gag-Pol polyprotein [489-587] (Human immunodeficiency virus 1, UniProt P12497).
T1 construct: 489-587
The test can be described thus: Protease Inhibition Assay. To be noted: pH 5.5; 30 °C.
Broadly, the IC50 is the point on the concentration scale where inhibition reaches its midpoint. A higher IC50 goes with lower potency. Turning to `CC(C)(C)OC(=O)N[C@@H](Cc1ccccc1)[C@@H](O)C[C@]1(Cc2ccccc2)N=CC(C2C[C@H](CC(N)=O)c3ccccc32)C1=O` (stereo partly drawn) [tert-butyl N-[(2S,3S)-4-[(2S)-2-benzyl-4-[(3R)-3-(carbamoylmethyl)-2,3-dihydro-1H-inden-1-yl]-3-oxo-2,3-dihydro-1H-pyrrol-2-yl]-3-hydroxy-1-phenylbutan-2-yl]carbamate], inhibition was half-maximal at 20.5 nM (IC50).
For `O=C(N[C@@H](Cc1ccccc1)[C@@H](O)C[C@]1(Cc2ccccc2)N=CC(C2c3ccccc3[C@H]3NC(=O)O[C@@H]23)C1=O)O[C@H]1CCOC1` (stereo partly drawn) [(3S)-oxolan-3-yl N-[(2S,3S)-4-[(2S)-4-[(3aR,8aS)-2-oxo-2H,3H,3aH,8H,8aH-indeno[1,2-d][1,3]oxazol-8-yl]-2-benzyl-3-oxo-2,3-dihydro-1H-pyrrol-2-yl]-3-hydroxy-1-phenylbutan-2-yl]carbamate], the IC50 stood at 0.44 nM.
For `CC(C)(C)OC(=O)N[C@@H](Cc1ccccc1)[C@@H](O)C[C@]1(Cc2ccccc2)N=CC(C2c3ccccc3[C@H]3NC(=O)O[C@@H]23)C1=O` (stereo partly drawn) [tert-butyl N-[(2S,3S)-4-[(2S)-4-[(3aR,8aS)-2-oxo-2H,3H,3aH,8H,8aH-indeno[1,2-d][1,3]oxazol-8-yl]-2-benzyl-3-oxo-2,3-dihydro-1H-pyrrol-2-yl]-3-hydroxy-1-phenylbutan-2-yl]carbamate] the value was 2.5 nM.
Next, `CC(C)(C)CC(=O)N[C@@H](Cc1ccccc1)[C@@H](O)C[C@]1(Cc2ccccc2)N=CC(C2C[C@H](CC(N)=O)c3ccccc32)C1=O` (stereo partly drawn) [N-[(2S,3S)-4-[(2S)-2-benzyl-4-[(3R)-3-(carbamoylmethyl)-2,3-dihydro-1H-inden-1-yl]-3-oxo-2,3-dihydro-1H-pyrrol-2-yl]-3-hydroxy-1-phenylbutan-2-yl]-3,3-dimethylbutanamide]: greater than 250 nM; `O=C(N[C@@H](Cc1ccccc1)[C@@H](O)C[C@]1(Cc2ccccc2)N=CC(C2c3ccccc3C[C@H]2O)C1=O)O[C@H]1CCOC1` (stereo partly drawn) [(3S)-oxolan-3-yl N-[(2S,3S)-4-[(2S)-2-benzyl-4-[(2R)-2-hydroxy-2,3-dihydro-1H-inden-1-yl]-3-oxo-2,3-dihydro-1H-pyrrol-2-yl]-3-hydroxy-1-phenylbutan-2-yl]carbamate]: 2 nM.
Turning to `O=C(N[C@@H](Cc1ccccc1)[C@@H](O)C[C@]1(Cc2ccccc2)N=CC(C2CNC(=O)c3ccccc32)C1=O)O[C@H]1CCOC1` (stereo partly drawn) [(3S)-oxolan-3-yl N-[(2S,3S)-4-[(2S)-2-benzyl-3-oxo-4-(1-oxo-1,2,3,4-tetrahydroisoquinolin-4-yl)-2,3-dihydro-1H-pyrrol-2-yl]-3-hydroxy-1-phenylbutan-2-yl]carbamate], the IC50 turned out to be 5.7 nM.
For `CC(C)(C)CC(=O)N[C@@H](Cc1ccccc1)[C@@H](O)C[C@]1(Cc2ccccc2)N=CC(C2c3ccccc3[C@H]3NC(=O)O[C@@H]23)C1=O` (stereo partly drawn) [N-[(2S,3S)-4-[(2S)-4-[(3aR,8aS)-2-oxo-2H,3H,3aH,8H,8aH-indeno[1,2-d][1,3]oxazol-8-yl]-2-benzyl-3-oxo-2,3-dihydro-1H-pyrrol-2-yl]-3-hydroxy-1-phenylbutan-2-yl]-3,3-dimethylbutanamide] the value was 96 nM; for `NC(=O)O[C@@H]1Cc2ccccc2C1C1C=N[C@@](Cc2ccccc2)(C[C@H](O)[C@H](Cc2ccccc2)NC(=O)O[C@H]2CCOC2)C1=O` (stereo partly drawn) [(3S)-oxolan-3-yl N-[(2S,3S)-4-[(2S)-2-benzyl-4-[(2R)-2-(carbamoyloxy)-2,3-dihydro-1H-inden-1-yl]-3-oxo-2,3-dihydro-1H-pyrrol-2-yl]-3-hydroxy-1-phenylbutan-2-yl]carbamate], 2 nM.
